Test results: patent publication US9701792B2, “Composite compositions and methods of preparing and using same” (THE REGENTS OF THE UNIVERSITY OF COLORADO, A BODY CORPORATE, priority 2014, dated 2017)

Test: Volumetric shrinkage during photo-CuAAC reaction
Assay type: physicochemical
Conditions: monomer (2) and 4-pentyl-1-ol in chloroform; azide/alkyne to CuCl2/PMDETA/I819 50:50:1:1
Description: The volumetric shrinkage behavior during the photo-CuAAC reaction was measured using monomer (2) in FIGS. 3 and 4-pentyl-1-ol in chloroform (molar ratio of azide/alkyne to CuCl2/PMDETA/I819 as 50:50:1:1, the same as the bulk model system). […] In certain embodiments, the total shrinkage is lower in the CuAAC polymerization because the formed triazole concentration is less than the required methacrylate concentration. With appropriate fillers, the composite shrinkage may be reduced further.

## CC(C)(c1ccc(OCC(O)CN=[N+]=[N-])cc1)c1ccc(OCC(O)CN=[N+]=[N-])cc1 (stereo not shown) [monomer (2), bisphenol A di(3-azido-2-hydroxypropan-1-ol) ether]
  molar volume change per triazole formed: 22.2 mL/mol
